# Read-outs that look alike come from different tables or passages of the source.
# Columns and labels:
# human Nav.1.7 = target: T1, human Nav.1.7 (Homo sapiens, UniProt Q15858); test: Nav1.7 spiking HEK assay on Swarm; format: cell-based
# T1 construct: expressed in transfected cells
# Nav1.5 = details: cited from earlier work
# [1] = normalized mean spike amplitude score, Prestwick library compounds
# [2] = read-out: Nav1.5 Ionworks (IC50), automated patch clamp, literature reported, ref Harmer et al., 2011
# T1 sequence (Q15858 whole entry): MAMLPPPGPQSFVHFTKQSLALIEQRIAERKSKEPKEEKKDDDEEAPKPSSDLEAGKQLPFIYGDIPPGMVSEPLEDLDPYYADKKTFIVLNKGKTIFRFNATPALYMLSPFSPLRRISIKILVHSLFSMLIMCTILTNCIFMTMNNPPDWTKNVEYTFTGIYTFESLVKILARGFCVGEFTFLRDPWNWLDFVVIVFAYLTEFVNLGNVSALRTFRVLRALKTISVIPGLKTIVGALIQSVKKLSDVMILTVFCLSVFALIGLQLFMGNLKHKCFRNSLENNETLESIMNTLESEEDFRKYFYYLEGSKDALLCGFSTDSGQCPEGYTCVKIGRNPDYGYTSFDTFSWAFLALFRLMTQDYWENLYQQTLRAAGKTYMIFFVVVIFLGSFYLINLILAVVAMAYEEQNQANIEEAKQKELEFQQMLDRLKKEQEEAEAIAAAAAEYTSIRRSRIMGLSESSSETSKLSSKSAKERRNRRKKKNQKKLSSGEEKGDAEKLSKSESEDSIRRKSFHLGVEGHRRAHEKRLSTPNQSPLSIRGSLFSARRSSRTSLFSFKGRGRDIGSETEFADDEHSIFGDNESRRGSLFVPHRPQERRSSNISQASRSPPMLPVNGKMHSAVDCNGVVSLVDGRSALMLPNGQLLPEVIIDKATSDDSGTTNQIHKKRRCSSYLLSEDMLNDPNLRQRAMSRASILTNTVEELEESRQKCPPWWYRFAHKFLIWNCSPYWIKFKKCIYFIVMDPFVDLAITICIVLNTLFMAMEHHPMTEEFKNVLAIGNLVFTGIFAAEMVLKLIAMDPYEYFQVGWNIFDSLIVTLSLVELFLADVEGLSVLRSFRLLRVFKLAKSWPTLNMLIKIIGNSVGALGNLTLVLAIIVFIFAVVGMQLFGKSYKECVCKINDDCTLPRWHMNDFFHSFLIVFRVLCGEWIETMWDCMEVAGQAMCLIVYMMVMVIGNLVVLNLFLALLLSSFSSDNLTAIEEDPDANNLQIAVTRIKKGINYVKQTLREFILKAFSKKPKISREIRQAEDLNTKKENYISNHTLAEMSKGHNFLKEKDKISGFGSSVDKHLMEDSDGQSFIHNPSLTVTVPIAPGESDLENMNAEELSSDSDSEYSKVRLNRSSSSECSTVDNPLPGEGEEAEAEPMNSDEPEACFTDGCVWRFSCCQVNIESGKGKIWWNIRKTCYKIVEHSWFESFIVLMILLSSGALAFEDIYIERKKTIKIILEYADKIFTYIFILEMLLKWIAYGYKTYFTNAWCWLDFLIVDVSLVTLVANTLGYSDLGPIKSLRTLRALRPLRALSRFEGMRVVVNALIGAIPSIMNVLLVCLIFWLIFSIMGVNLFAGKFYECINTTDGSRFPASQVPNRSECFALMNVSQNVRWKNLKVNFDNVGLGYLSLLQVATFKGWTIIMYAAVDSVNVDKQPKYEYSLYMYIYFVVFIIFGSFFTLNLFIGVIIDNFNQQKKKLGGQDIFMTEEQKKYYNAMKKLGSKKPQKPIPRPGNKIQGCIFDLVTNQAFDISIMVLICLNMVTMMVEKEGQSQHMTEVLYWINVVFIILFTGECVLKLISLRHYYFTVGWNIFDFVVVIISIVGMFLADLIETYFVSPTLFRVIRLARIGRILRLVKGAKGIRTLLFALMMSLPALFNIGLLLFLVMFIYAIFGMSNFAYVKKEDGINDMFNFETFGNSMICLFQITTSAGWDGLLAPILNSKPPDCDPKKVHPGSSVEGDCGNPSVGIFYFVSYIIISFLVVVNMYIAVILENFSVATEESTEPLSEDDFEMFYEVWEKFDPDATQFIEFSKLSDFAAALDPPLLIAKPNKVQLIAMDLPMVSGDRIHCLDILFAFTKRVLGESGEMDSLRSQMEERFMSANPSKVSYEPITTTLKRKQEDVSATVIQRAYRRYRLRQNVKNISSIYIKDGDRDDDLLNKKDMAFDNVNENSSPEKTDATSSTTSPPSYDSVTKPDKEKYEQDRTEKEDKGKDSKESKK
compound,measurement,setting,value
O=c1[nH]c2ccccc2n1CCCN1CCC(n2c(=O)[nH]c3cc(Cl)ccc32)CC1 [Domperidone],Nav1.7 Swarm (score at 3 µM),human Nav.1.7; [1],0.53
same,IC50,Nav1.5; [2],5.6 µM
CCN(CC)CCCC(C)Nc1ccnc2cc(Cl)ccc12 (centres unmarked) [Chloroquine],Nav1.7 Swarm (score at 3 µM),human Nav.1.7,0.98
same,IC50,Nav1.5,36.5 µM
COC(=O)C1=C(C)NC(C)=C(C(=O)OC)C1c1ccccc1[N+](=O)[O-] [Nifedipine],Nav1.7 Swarm (score at 3 µM),human Nav.1.7; [1],0.97
Clc1ccc2c(c1)C(N1CCNCC1)=Nc1ccccc1O2 [Amoxapine],IC50,Nav1.5; [2],5.8 µM
OCCN(CCO)c1nc(N2CCCCC2)c2nc(N(CCO)CCO)nc(N3CCCCC3)c2n1 [Dipyridamole],Nav1.7 Swarm (score at 3 µM),human Nav.1.7; [1],0.92
same,IC50,Nav1.5; [2],19.3 µM
CN1CCCCC1CCN1c2ccccc2Sc2ccc([S+](C)[O-])cc21 (centres unmarked) [Mesoridazine],Nav1.7 Swarm (score at 3 µM),human Nav.1.7; [1],0.40
same,IC50,Nav1.5; [2],7.2 µM
OCc1cc(C(O)CNCCCCCCOCCCCc2ccccc2)ccc1O (centres unmarked) [Salmeterol],Nav1.7 Swarm (score at 3 µM),human Nav.1.7; [1],0.22
same,IC50,Nav1.5; [2],7.2 µM
COC(=O)C1=C(C)NC(C)=C(C(=O)OCCN(C)Cc2ccccc2)C1c1cccc([N+](=O)[O-])c1 (centres unmarked) [Nicardipine],Nav1.7 Swarm (score at 3 µM),human Nav.1.7; [1],0.07
same,IC50,Nav1.5; [2],4.3 µM
COc1ccc(CCN2CCC(Nc3nc4ccccc4n3Cc3ccc(F)cc3)CC2)cc1 [Astemizole],Nav1.7 Swarm (score at 3 µM),human Nav.1.7; [1],0.01
same,IC50,Nav1.5; [2],2.3 µM
O=C1NCCN1CCN1CCC(c2cn(-c3ccc(F)cc3)c3ccc(Cl)cc23)CC1 [Sertindole],Nav1.7 Swarm (score at 3 µM),human Nav.1.7; [1],0.64
same,IC50,Nav1.5; [2],8.1 µM
C=C[C@H]1C[N@@]2CC[C@H]1C[C@@H]2[C@@H](O)c1ccnc2ccc(OC)cc12 [Quinidine],IC50,Nav1.5; [2],9.7 µM
O=c1[nH]c2ccccc2n1C1CCN(CCCC(c2ccc(F)cc2)c2ccc(F)cc2)CC1 [Pimozide],Nav1.7 Swarm (score at 3 µM),human Nav.1.7; [1],0.89
same,IC50,Nav1.5; [2],1.7 µM
CCCCN1CCCCC1C(=O)Nc1c(C)cccc1C (centres unmarked) [Bupivacaine],Nav1.7 Swarm (score at 3 µM),human Nav.1.7; [1],0.27
same,IC50,Nav1.5; [2],4.3 µM
Cc1nc2n(c(=O)c1CCN1CCC(c3noc4cc(F)ccc34)CC1)CCCC2 [Risperidone],Nav1.7 Swarm (score at 3 µM),human Nav.1.7,0.89
C1CCC(C(CC2CCCCN2)C2CCCCC2)CC1 (centres unmarked) [Perhexiline],Nav1.7 Swarm (score at 3 µM),human Nav.1.7; [1],0.59
same,IC50,Nav1.5; [2],3.4 µM
CC(C)(C)c1ccc(C(O)CCCN2CCC(C(O)(c3ccccc3)c3ccccc3)CC2)cc1 (centres unmarked) [Terfenadine],Nav1.7 Swarm (score at 3 µM),human Nav.1.7; [1],0.39
CNCCCC1c2ccccc2C=Cc2ccccc21 [Protriptyline],Nav1.7 Swarm (score at 3 µM),human Nav.1.7; [1],0.63
same,IC50,Nav1.5; [2],3.1 µM
CCOC(=O)Nc1ccc2c(c1)N(C(=O)CCN1CCOCC1)c1ccccc1S2 [Moricizine],Nav1.7 Swarm (score at 3 µM),human Nav.1.7; [1],0.15
same,IC50,Nav1.5; [2],1.2 µM
COc1ccc([C@@H]2Sc3ccccc3N(CCN(C)C)C(=O)[C@@H]2OC(C)=O)cc1 [Diltiazem],Nav1.7 Swarm (score at 3 µM),human Nav.1.7; [1],0.82
same,IC50,Nav1.5; [2],14.2 µM
CCCNC(C)C(=O)Nc1ccccc1C (centres unmarked) [Prilocaine],Nav1.7 Swarm (score at 3 µM),human Nav.1.7; [1],0.95
same,IC50,Nav1.5; [2],72.6 µM
CCc1nc(N)nc(N)c1-c1ccc(Cl)cc1 [Pyrimethamine],Nav1.7 Swarm (score at 3 µM),human Nav.1.7; [1],0.99
same,IC50,Nav1.5; [2],24.6 µM
CCN(CC)CCNC(=O)c1cc(Br)c(N)cc1OC [Bromopride],Nav1.7 Swarm (score at 3 µM),human Nav.1.7; [1],0.92
same,IC50,Nav1.5; [2],41.4 µM
CSc1ccc2c(c1)N(CCC1CCCCN1C)c1ccccc1S2 (centres unmarked) [Thioridazine],Nav1.7 Swarm (score at 3 µM),human Nav.1.7; [1],0.04
same,IC50,Nav1.5; [2],3.5 µM
CN1CCN(CCCN2c3ccccc3Sc3ccc(C(F)(F)F)cc32)CC1 [Trifluoperazine],Nav1.7 Swarm (score at 3 µM),human Nav.1.7; [1],0.25
same,IC50,Nav1.5; [2],7.4 µM
CCCNCC(O)COc1ccccc1C(=O)CCc1ccccc1 (centres unmarked) [Propafenone],Nav1.7 Swarm (score at 3 µM),human Nav.1.7; [1],0.20
COC(=O)[C@H]1[C@H]2C[C@@H]3c4[nH]c5cc(OC)ccc5c4CCN3C[C@H]2C[C@@H](OC(=O)c2cc(OC)c(OC)c(OC)c2)[C@@H]1OC [Reserpine],Nav1.7 Swarm (score at 3 µM),human Nav.1.7; [1],1.01
same,IC50,Nav1.5; [2],10.5 µM
CCN(CC)CCCC(C)Nc1c2ccc(Cl)cc2nc2ccc(OC)cc12 (centres unmarked) [Quinacrine],Nav1.7 Swarm (score at 3 µM),human Nav.1.7; [1],0.96
same,IC50,Nav1.5; [2],20.2 µM
CN(C)CCCN1c2ccccc2CCc2ccccc21 [Imipramine],Hit identification in Prestwick Chemical Library pilot screen,"human Nav.1.7; compounds at 1 μM, cutoff 0.5 mean spike amplitude",hits
same,Nav1.7 Swarm (score at 3 µM),human Nav.1.7; [1],0.35
CN(C)CCCC1(c2ccc(F)cc2)OCc2cc(C#N)ccc21 (centres unmarked) [Citalopram],Nav1.7 Swarm (score at 3 µM),human Nav.1.7; [1],0.92
same,IC50,Nav1.5; [2],14.7 µM
O=C(CCCN1CCC(O)(c2ccc(Cl)cc2)CC1)c1ccc(F)cc1 [Haloperidol],Nav1.7 Swarm (score at 3 µM),human Nav.1.7; [1],-0.09
same,IC50,Nav1.5; [2],2.3 µM
CC(C)N(CCC(C(N)=O)(c1ccccc1)c1ccccn1)C(C)C (centres unmarked) [Disopyramide],Nav1.7 Swarm (score at 3 µM),human Nav.1.7; [1],0.94
same,IC50,Nav1.5; [2],302 µM
CCCCc1oc2ccccc2c1C(=O)c1cc(I)c(OCCN(CC)CC)c(I)c1 [Amiodarone],Nav1.7 Swarm (score at 3 µM),human Nav.1.7,0.52
O=C(N[C@H](CO)[C@H](O)c1ccc([N+](=O)[O-])cc1)C(Cl)Cl [Chloramphenicol],Nav1.7 Swarm (score at 3 µM),human Nav.1.7; [1],1.07
same,IC50,Nav1.5; [2],215 µM
CC(NC(C)(C)C)C(=O)c1cccc(Cl)c1 (centres unmarked) [Bupropion],Nav1.7 Swarm (score at 3 µM),human Nav.1.7; [1],0.97
same,IC50,Nav1.5; [2],76.2 µM
Nc1nc2ccc(OC(F)(F)F)cc2s1 [Riluzole],Nav1.7 Swarm (score at 3 µM),human Nav.1.7; [1],0.14
